Data published in patent EP2766361B1, “8-CARBAMOYL-2-(2,3-DISUBSTITUTED PYRID-6-YL)-1,2,3,4-TETRAHYDROISOQUINOLINE DERIVATIVES AS APOPTOSIS-INDUCING AGENTS FOR THE TREATMENT OF CANCER AND IMMUNE AND AUTOIMMUNE DISEASES” (priority 2011, dated 2013).

Experiments:
[1] = tested on: mouse FL5.12 cells transfected with Bcl-xL; assay: FL5.12 cellular assay (cell viability, CellTiter-Glo); assay type: cell-based; conditions: IL-3-depleted, 3% FBS assay media, 24 hours, read-out: FL5.12 Bcl-xL, -IL3, EC50
Method: Cell viability was assayed using the CellTiter-Glo assay (Promega Corp., Madison, WI) according to the manufacturer instructions. Individual determinations were the result of duplicate values. […] Table 2. In Vitro Data

[2] = Single dose pharmacokinetics, oral bioavailability; assay type: in vivo, Sprague-Dawley rats; conditions: for bioavailability: rat, in vivo, po
Method: The single dose pharmacokinetics of select compounds were evaluated in Sprague-Dawley rats (Charles River) after a 5 mg/kg oral dose (n = 3) (10% DMSO in PEG-400) administered by gavage or by 5 mg/kg IV bolus dose (n = 3) (10% DMSO in PEG-400). Compound and the internal standard were separated from each other and coextracted contaminants on a 50 mm × 3 mm Keystone Betasil CN 5 µm column with an acetonitrile/0.1% trifluoroacetic acid mobile phase (50:50, by volume) at a flow rate of 0.7 mL/min. Analysis was performed on a Sciex API3000 biomolecular mass analyzer with a heated nebulizer interface. Compound and internal standard peak areas were determined using Sciex MacQuan software. The plasma drug concentration of each sample was calculated by least-squares linear regression analysis (nonweighted) of the peak area ratio (parent/internal standard) of the spiked plasma standards versus concentration. The plasma concentration data were submitted to multiexponential curve fitting using WinNonlin.3. The area under the plasma concentration-time curve was calculated using the linear trapezoidal rule for the plasma concentration-time profiles.
One way to calculate bioavailability of a drug or agent is by dividing the plasma concentration following an oral dose by the concentration following an intravenous dose.

[3] = tested on: Molt-4 human acute lymphoblastic leukemia cells; assay: Molt-4 cellular assay (cell viability, MTS); assay type: cell-based; conditions: 10% human serum, 48 hours
Method: Molt-4 (ATCC, Manassas, VA) human acute lymphoblastic leukemia cells were plated 50,000 cells per well in 96-well tissue culture plates in a total volume of 100 µL tissue culture medium supplemented with 10% human serum (Invitrogen, Carlsbad, CA) and treated with a 3-fold serial dilution of the compounds of interest from 5 µM to […]. Each concentration was tested in duplicate at least 3 separate times. The number of viable cells following 48 hours of compound treatment was determined using the CellTiter 96® Aqueous non-radioactive cell proliferation MTS assay according to manufacturer's recommendations (Promega Corp., Madison, WI).

Compound	bioavailability ([2]; 1 mg/kg)	EC50 [3]	bioavailability ([2]; 5 mg/kg)	EC50 [1]	F (%), dose ([2]; Rat p.o. dose, 5 mpk)
O=C(Nc1nc2ccccc2s1)c1cccc2c1CN(c1ccc(-c3cnn(CC45CC6CC(CC(C6)C4)C5)c3Cl)c(C(=O)O)n1)CC2 [Example 42, 6-[8-(1,3-benzothiazol-2-ylcarbamoyl)-3,4-dihydroisoquinolin-2(1H)-yl]-3-{5-chloro-1-[tricyclo[3.3.1.1^3,7]dec-1-ylmethyl]-1H-pyrazol-4-yl}pyridine-2-carboxylic acid]	15%			0.5 nM	
Cc1c(-c2ccc(N3CCc4cccc(C(=O)Nc5nc6ccccc6s5)c4C3)nc2C(=O)NS(=O)(=O)C2CC2)cnn1CC12CC3CC(CC(C3)C1)C2 [Example 18, N-(1,3-benzothiazol-2-yl)-2-{6-[(cyclopropylsulfonyl)carbamoyl]-5-[5-methyl-1-(tricyclo[3.3.1.1^3,7]dec-1-ylmethyl)-1H-pyrazol-4-yl]pyridin-2-yl}-1,2,3,4-tetrahydroisoquinoline-8-carboxamide]		24 nM	31%	1 nM	
O=C(Nc1nc2ccccc2s1)c1cccc2c1CN(c1ccc(-c3cnn(CC45CC6CC(CC(C6)O4)C5)c3)c(C(=O)O)n1)CC2 [Example 13, 6-[8-(1,3-benzothiazol-2-ylcarbamoyl)-3,4-dihydroisoquinolin-2(1H)-yl]-3-[1-(2-oxatricyclo[3.3.1.1^3,7]dec-1-ylmethyl)-1H-pyrazol-4-yl]pyridine-2-carboxylic acid]			10%	71 nM	
Cc1c(-c2ccc(N3CCc4cccc(C(=O)Nc5nc6cccnc6s5)c4C3)nc2C(=O)O)cnn1CC12CC3CC(CC(C3)C1)C2 [Example 24, 3-[5-methyl-1-(tricyclo[3.3.1.1^3,7]dec-1-ylmethyl)-1H-pyrazol-4-yl]-6-[8-([1,3]thiazolo[5,4-b]pyridin-2-ylcarbamoyl)-3,4-dihydroisoquinolin-2(1H)-yl]pyridine-2-carboxylic acid]			29%	< 1 nM	
Cc1c(-c2ccc(N3CCc4cccc(C(=O)Nc5nc6ccccc6s5)c4C3)nc2C(=O)O)cnn1CC12CC3CC(CC(C3)C1)C2 [Example 3, 6-[8-(1,3-benzothiazol-2-ylcarbamoyl)-3,4-dihydroisoquinolin-2(1H)-yl]-3-[5-methyl-1-(tricyclo[3.3.1.1^3,7]dec-1-ylmethyl)-1H-pyrazol-4-yl]pyridine-2-carboxylic acid]		6 nM		< 1 nM	[…]
COC12CC3CC(CC(Cn4ncc(-c5ccc(N6CCc7cccc(C(=O)Nc8nc9ccccc9s8)c7C6)nc5C(=O)O)c4C)(C3)C1)C2 [Example 16, 6-[8-(1,3-benzothiazol-2-ylcarbamoyl)-3,4-dihydroisoquinolin-2(1H)-yl]-3-(1-{[3-methoxytricyclo[3.3.1.1^3,7]dec-1-yl]methyl}-5-methyl-1H-pyrazol-4-yl)pyridine-2-carboxylic acid]			20%	< 1 nM	

More lines, main results first:

bioavailability ([2]; 1 mg/kg)	EC50 [3]	bioavailability ([2]; 5 mg/kg)	Compound	EC50 [1]	F (%), dose ([2]; Rat p.o. dose, 5 mpk)
15%			Cc1c(-c2ccc(N3CCc4cccc(C(=O)Nc5cn6ccccc6n5)c4C3)nc2C(=O)O)cnn1CC12CC3CC(CC(C3)C1)C2 [Example 49, 6-[8-(imidazo[1,2-a]pyridin-2-ylcarbamoyl)-3,4-dihydroisoquinolin-2(1H)-yl]-3-[5-methyl-1-(tricyclo[3.3.1.1^3,7]dec-1-ylmethyl)-1H-pyrazol-4-yl]pyridine-2-carboxylic acid]	5 nM	
31%	24 nM		Cc1c(-c2ccc(N3CCc4cccc(C(=O)Nc5nc6ccccc6s5)c4C3)nc2C(=O)O)cnn1CC12CC3CC(CC(C3)O1)C2 [Example 59, 6-[8-(1,3-benzothiazol-2-ylcarbamoyl)-3,4-dihydroisoquinolin-2(1H)-yl]-3-[5-methyl-1-(2-oxatricyclo[3.3.1.1^3,7]dec-1-ylmethyl)-1H-pyrazol-4-yl]pyridine-2-carboxylic acid]	0.3 nM	
20%			Cc1c(-c2ccc(N3CCc4cccc(C(=O)Nc5nc6ccccc6s5)c4C3C)nc2C(=O)O)cnn1CC12CC3CC(CC(C3)C1)C2 (centres unmarked) [Example 43, 6-[8-(1,3-benzothiazol-2-ylcarbamoyl)-1-methyl-3,4-dihydroisoquinolin-2(1H)-yl]-3-[5-methyl-1-(tricyclo[3.3.1.1^3,7]dec-1-ylmethyl)-1H-pyrazol-4-yl]pyridine-2-carboxylic acid]	9 nM	
58%			COCCC1(Cn2ncc(-c3ccc(N4CCc5cccc(C(=O)Nc6nc7ccccc7s6)c5C4)nc3C(=O)O)c2C)CCCCCCC1 [Example 46, 6-[8-(1,3-benzothiazol-2-ylcarbamoyl)-3,4-dihydroisoquinolin-2(1H)-yl]-3-(1-{[1-(2-methoxyethyl)cyclooctyl]methyl}-5-methyl-1H-pyrazol-4-yl)pyridine-2-carboxylic acid]	1 nM	
